Measured values: publication PMC5011342, “A high throughput drug screening assay to identify compounds that promote oligodendrocyte differentiation using acutely dissociated and purified oligodendrocyte precursor cells” (BMC Research Notes, 2016)
Like-named read-outs stand apart in the source and are kept apart here.

Experiments:
[1] = system: acutely dissociated and purified rat OPCs; assay: Acute OL differentiation assay (MBP expression/cell, immunofluorescent image quantification); assay type: cell-based
Outline: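 Oligodendrocyte precursor cells were enriched from P6-P7 Sprague–Dawley rat brains by immunopanning (RAN-2 and GalC depletion, O4 selection), plated at 5000 cells/well in serum-free, mitogen-free differentiation media on PDL/laminin 96-well view plates, centrifuged at 200×g, and pre-incubated 1–2 h before test compounds were added in quadruplicate. On DIV4, cells were fixed, stained for MBP and DAPI, imaged automatically, and MBP expression per cell was quantified.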

[2] = system: expanded OPCs; assay: cells; conditions: for viability at 0.1 µM / viability at 1 µM / viability at 10 µM: Rattus norvegicus, 72 h
Outline: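 Expanded OPCs seeded at 10,000 cells/well in differentiation media, then exposed to NCC library compounds at 10, 1 and 0.1 µM (quadruplicate, 0.1% DMSO) for three days. Viability read as alamarBlue fluorescence (560/590 nm) after 4 h at 37 °C; tunicamycin 5 ng/ml served as toxicity control.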

[3] = Rattus norvegicus, 2 uM test compound; relative to quetiapine; sheet "All OLga data"; read-out: OL differentiation, 2 uM (% Quet)
[4] = Rattus norvegicus, 10 uM test compound; relative to quetiapine; sheet "All OLga data"; read-out: OL differentiation, 10 uM (% Quet)
[5] = read-out: 0.1 µM (% DMSO), alamarBlue viability of expanded OPCs, compound at 0.1 µM, sheet All Tox data
[6] = read-out: 1 µM (% DMSO), alamarBlue viability of expanded OPCs, compound at 1 µM, sheet All Tox data
[7] = read-out: 10 µM (% DMSO), alamarBlue viability of expanded OPCs, compound at 10 µM, sheet All Tox data
[8] = Rattus norvegicus, test compound at 2 uM; NCC library screen, sheet "All OLga data"; relative to quetiapine; read-out: 2 uM (% Quet)
[9] = Rattus norvegicus, test compound at 10 uM; NCC library screen, sheet "All OLga data"; relative to quetiapine; read-out: 10 uM (% Quet)
[10] = alamarBlue viability of expanded OPCs, compound at 0.1 µM, relative to DMSO control
[11] = alamarBlue viability of expanded OPCs, compound at 1 µM, relative to DMSO control
[12] = alamarBlue viability of expanded OPCs, compound at 10 µM, relative to DMSO control
[13] = Rattus norvegicus, test compound at 0.4 uM; NCC library screen, sheet "All OLga data"; relative to quetiapine; read-out: 0.4 uM (% Quet)
[14] = read-out: 0.1 µM (% DMSO), alamarBlue viability, NCC library compound at 0.1 µM, sheet "All Tox data"
[15] = read-out: 1 µM (% DMSO), alamarBlue viability, NCC library compound at 1 µM, sheet "All Tox data"
[16] = read-out: 10 µM (% DMSO), alamarBlue viability, NCC library compound at 10 µM, sheet "All Tox data"
[17] = Rattus norvegicus, 0.4 uM test compound; relative to quetiapine; sheet "All OLga data"; read-out: OL differentiation, 0.4 uM (% Quet)
[18] = alamarBlue viability, NCC library compound at 0.1 µM, sheet "All Tox data"
[19] = alamarBlue viability, NCC library compound at 1 µM, sheet "All Tox data"
[20] = alamarBlue viability, NCC library compound at 10 µM, sheet "All Tox data"

Row | Molecule | activation at 2 µM [1, 3] [%] | activation at 10 µM [1, 4] [%] | viability at 0.1 µM [2, 5] [%] | viability at 1 µM [2, 6] [%] | viability at 10 µM [2, 7] [%] | activation at 2 µM [1, 8] [%] | 0.1 µM (% DMSO) [2, 10] [% DMSO] | 1 µM (% DMSO) [2, 11] [% DMSO] | 10 µM (% DMSO) [2, 12] [% DMSO] | further results
1 | Nc1[nH]c(=O)ncc1F [Flucytosine] | -1.1 | -1 | 98.2 | 90.7 | 99.4 | – | – | – | – | –
2 | CCCNC(C)C(=O)Nc1ccccc1C (centres unmarked) [Prilocaine] | – | – | – | – | – | 2.7 | 89.7 | 89.9 | 89.6 | activation at 10 µM [1, 9]: -1.2%
3 | CCOc1cc(N)c(Cl)cc1C(=O)NCC1CN(Cc2ccc(F)cc2)CCO1 (centres unmarked) [Mosapride] | -17 | 4.4 | 102 | 104 | 130 | – | – | – | – | –
4 | NS(=O)(=O)c1cc2c(cc1Cl)N=CNS2(=O)=O [Chlorothiazide] | – | – | – | – | – | -11.1 | 88.9 | 90.2 | 89.0 | activation at 10 µM [1, 9]: -11.8%
5 | CS(=O)(=O)c1ccc(-c2cc(Br)sc2-c2ccc(F)cc2)cc1 [DuP 697] | – | – | – | – | – | -109 | – | – | – | activation at 0.4 µM [1, 13]: -42.3%; viability at 0.1 µM [2, 14]: 89.6%; viability at 1 µM [2, 15]: 114%; viability at 10 µM [2, 16]: 10.7%
6 | CCN(CC)CCOC(=O)C1(C2CCCCC2)CCCCC1 [Dicyclomine] | – | – | – | – | – | 32.1 | 99.8 | 87.7 | 52.8 | activation at 0.4 µM [1, 13]: -5.5%
7 | CCC(C(N)=O)N1CCCC1=O (centres unmarked) [Etiracetam] | -3.1 | -6.3 | 86.3 | 90.6 | 91.7 | – | – | – | – | –
8 | C=C1/C(=C\C=C2/CCC[C@]3(C)[C@@H]([C@H](C)/C=C/[C@@H](O)C4CC4)CC[C@@H]23)C[C@@H](O)C[C@@H]1O [Calcipotriene] | -7.8 | – | 98.3 | 89 | 11.5 | – | – | – | – | activation at 0.4 µM [1, 17]: 14.8%
9 | Cc1ccsc1C(=CCCN1CCC[C@@H](C(=O)O)C1)c1sccc1C [Tiagabine] | -1.8 | 8.7 | 99.9 | 89.2 | 92.7 | – | – | – | – | –
10 | CC(=O)OCC(CCn1cnc2cnc(N)nc21)COC(C)=O [Famciclovir] | -6.9 | -8.8 | 97.6 | 90.6 | 106 | – | – | – | – | –
11 | Oc1cc(Cl)ccc1Oc1ccc(Cl)cc1Cl [Triclosan] | – | – | – | – | – | – | 100.2 | 117.5 | 9.2 | activation at 0.4 µM [1, 13]: 8.6%
12 | CCN(CC)C(=S)SSC(=S)N(CC)CC [Disulfiram] | – | – | 22.6 | 18.1 | 13.8 | – | – | – | – | activation at 0.4 µM [1, 17]: -180%
13 | CCOC(=O)c1ncn2c1CN(C)C(=O)c1cc(F)ccc1-2 [Flumazenil] | -7.2 | -31.7 | 84.8 | 88.2 | 95.5 | – | – | – | – | –
14 | C[C@@H](c1ncncc1F)[C@](O)(Cn1cncn1)c1ccc(F)cc1F [Voriconazole] | 4.8 | 10 | 99.1 | 97.4 | 96 | – | – | – | – | –
15 | CN1CCN(c2nc3cc(C(F)(F)F)ccc3n3cccc23)CC1.O=C(O)/C=C\C(=O)O.O=C(O)/C=C\C(=O)O [CGS-12066B] | – | – | – | – | – | – | – | – | – | 0.08 uM (% Quet) ([1]; test compound at 0.08 uM; NCC library screen, sheet "All OLga data"; relative to quetiapine): 28.1 % Quet; 0.4 uM (% Quet) ([1]; test compound at 0.4 uM; NCC library screen, sheet "All OLga data"; relative to quetiapine): -50.5 % Quet; 0.1 µM (% DMSO) [2, 18]: 78.7 % DMSO; 1 µM (% DMSO) [2, 19]: 44.5 % DMSO; 10 µM (% DMSO) [2, 20]: 16.9 % DMSO
16 | CC1(C)O[C@@H]2C[C@H]3[C@@H]4CCC5=CC(=O)C=C[C@]5(C)[C@@]4(F)[C@@H](O)C[C@]3(C)[C@]2(C(=O)CO)O1 [Triamcinolone Acetonide] | – | – | – | – | – | -1.9 | – | – | – | activation at 10 µM [1, 9]: 1.9%; viability at 0.1 µM [2, 14]: 133%; viability at 1 µM [2, 15]: 127%; viability at 10 µM [2, 16]: 127%
17 | HTMT | – | – | – | – | – | – | – | – | – | 2 uM (% Quet) ([1]; test compound at 2 uM; NCC library screen, sheet "All OLga data"; relative to quetiapine): -16.4 % Quet; 10 uM (% Quet) ([1]; test compound at 10 uM; NCC library screen, sheet "All OLga data"; relative to quetiapine): 21.8 % Quet; 0.1 µM (% DMSO) [2, 18]: 71.6 % DMSO; 1 µM (% DMSO) [2, 19]: 71.0 % DMSO; 10 µM (% DMSO) [2, 20]: 63.6 % DMSO
18 | CN1CCC[C@H]1c1cccnc1 [Nicotine] | – | – | – | – | – | – | – | – | – | activation at 2 µM ([1]; Rattus norvegicus, read-out: 2 uM (% Quet)): 12.3%; activation at 10 µM ([1]; Rattus norvegicus, read-out: 10 uM (% Quet)): 10.9%; viability at 0.1 µM ([2]; read-out: 0.1 µM (% DMSO)): 92.9%; viability at 1 µM ([2]; read-out: 1 µM (% DMSO)): 89.4%; viability at 10 µM ([2]; read-out: 10 µM (% DMSO)): 93.5%
19 | CC1=C(C(=O)O)N2C(=O)[C@@H](NC(=O)[C@H](N)c3ccccc3)[C@H]2SC1 [Cephalexin] | -1.3 | -4.5 | 103 | 110 | 112 | – | – | – | – | –
20 | CCN(CC)CCOC(=O)C(O)(c1ccccc1)c1ccccc1 [Benactyzine] | – | – | – | – | – | – | – | – | – | activation at 2 µM ([1]; Rattus norvegicus; read-out: 2 uM (% Quet)): -1.9%; activation at 10 µM ([1]; Rattus norvegicus; read-out: 10 uM (% Quet)): -2.1%; viability at 0.1 µM ([2]; read-out: 0.1 µM (% DMSO)): 100%; viability at 1 µM ([2]; read-out: 1 µM (% DMSO)): 88.2%; viability at 10 µM ([2]; read-out: 10 µM (% DMSO)): 90%
21 | CC(=O)O[C@]1(C(C)=O)CC[C@H]2[C@@H]3C[C@H](C)C4=CC(=O)CC[C@]4(C)[C@H]3CC[C@@]21C [Medroxyprogesterone acetate] | – | – | – | – | – | -30.5 | 104.2 | 103.1 | 118.4 | activation at 10 µM [1, 9]: -36.7%
22 | Cc1onc(-c2ccccc2)c1C(=O)N[C@@H]1C(=O)N2[C@@H]1SC(C)(C)[C@@H]2C(=O)O [Oxacillin] | – | – | – | – | – | – | 96.9 | 96.8 | 93.4 | activation at 2 µM ([1]; Rattus norvegicus, test compound at 2 uM; MBP expression relative to quetiapine; NCC library screen, sheet "All OLga data"; read-out: 2 uM (% Quet)): -14.9%; activation at 10 µM ([1]; Rattus norvegicus, test compound at 10 uM; MBP expression relative to quetiapine; NCC library screen, sheet "All OLga data"; read-out: 10 uM (% Quet)): -26.1%
23 | C[C@](N)(Cc1ccc(O)c(O)c1)C(=O)O [Methyldopa] | – | – | – | – | – | -37.7 | 100.4 | 86.9 | 63.4 | activation at 10 µM [1, 9]: -93.8%
